What all share (format): functional, organism-based
The test system of experiment [1] is Plasmodium falciparum. Put plainly: Antimalarial activity against multidrug-resistant Plasmodium falciparum TM91C235 assessed as inhibition of [3H]hypoxanthine incorporation after 96 hrs by microtiter plate scintillation counting.
The test system of experiment [2] is Plasmodium falciparum. Put plainly: Antimalarial activity against chloroquine-sensitive Plasmodium falciparum D6 assessed as inhibition of [3H]hypoxanthine incorporation after 96 hrs by microtiter plate scintillation counting.
In experiment [3] the test system is Plasmodium falciparum. Put plainly: Antimalarial activity against chloroquine-,pyrimethamine-resistant Plasmodium falciparum W2 assessed as inhibition of [3H]hypoxanthine incorporation after 96 hrs by microtiter plate scintillation counting.

As to `CC[C@H]1OC(=O)[C@H](C)[C@@H](O[C@H]2C[C@@](C)(OC)[C@@H](O)[C@H](C)O2)[C@H](C)[C@@H](O[C@@H]2O[C@H](C)C[C@H](N(C)C)[C@H]2O)[C@](C)(O)C[C@@H](C)CN(CCCNC(=O)NCCc2cccs2)[C@H](C)[C@@H](O)[C@]1(C)O`, the values for the IC50 with Plasmodium falciparum [1], in the experiment with Plasmodium falciparum [2] and in the experiment with Plasmodium falciparum [3] were 405 nM, 932 nM and 1040 nM, respectively.
For `CC[C@H]1OC(=O)[C@H](C)[C@@H](O[C@H]2C[C@@](C)(OC)[C@@H](O)[C@H](C)O2)[C@H](C)[C@@H](O[C@@H]2O[C@H](C)C[C@H](N(C)C)[C@H]2O)[C@](C)(O)C[C@@H](C)CN(CCCNC(=O)NC2CCCC2)[C@H](C)[C@@H](O)[C@]1(C)O`, the IC50 turned out to be 616 nM in the experiment on Plasmodium falciparum [1], 6020 nM with Plasmodium falciparum [2] and 277 nM in the experiment on Plasmodium falciparum [3].
Regarding `CC[C@H]1OC(=O)[C@H](C)[C@@H](O[C@H]2C[C@@](C)(OC)[C@@H](O)[C@H](C)O2)[C@H](C)[C@@H](O[C@@H]2O[C@H](C)C[C@H](N(C)C)[C@H]2O)[C@](C)(O)C[C@@H](C)CN(CCCNC(=S)Nc2ccc(C#N)cc2)[C@H](C)[C@@H](O)[C@]1(C)O`, the IC50 turned out to be 78.2 nM in the experiment with Plasmodium falciparum [1], 132 nM in the experiment with Plasmodium falciparum [2] and 50 nM in the experiment with Plasmodium falciparum [3].
In the same order, the values of `CC[C@H]1OC(=O)[C@H](C)[C@@H](O[C@H]2C[C@@](C)(OC)[C@@H](O)[C@H](C)O2)[C@H](C)[C@@H](O[C@@H]2O[C@H](C)C[C@H](N(C)C)[C@H]2O)[C@](C)(O)C[C@@H](C)CN(CCCNC(=S)NCCN2CCOCC2)[C@H](C)[C@@H](O)[C@]1(C)O` are 3320 nM, 12400 nM and 2090 nM.
With `CCNC(=O)NCCCN1C[C@H](C)C[C@@](C)(O)[C@H](O[C@@H]2O[C@H](C)C[C@H](N(C)C)[C@H]2O)[C@@H](C)[C@H](O[C@H]2C[C@@](C)(OC)[C@@H](O)[C@H](C)O2)[C@@H](C)C(=O)O[C@H](CC)[C@@](C)(O)[C@H](O)[C@H]1C`, the IC50 in the experiment on Plasmodium falciparum [1] came to 1980 nM; in the experiment with Plasmodium falciparum [2] it was 13700 nM; in the experiment on Plasmodium falciparum [3] it was 13700 nM.
For `CC[C@H]1OC(=O)[C@H](C)[C@@H](O[C@H]2C[C@@](C)(OC)[C@@H](O)[C@H](C)O2)[C@H](C)[C@@H](O[C@@H]2O[C@H](C)C[C@H](N(C)C)[C@H]2O)[C@](C)(O)C[C@@H](C)CN(CCCNC(=S)NC2CC3C=CC2C3)[C@H](C)[C@@H](O)[C@]1(C)O` (stereo partly specified), the results for the IC50 in the experiment on Plasmodium falciparum [1], in the experiment with Plasmodium falciparum [2] and with Plasmodium falciparum [3] were 183 nM, 302 nM and 173 nM, respectively.
As to `CC[C@H]1OC(=O)[C@H](C)[C@@H](O[C@H]2C[C@@](C)(OC)[C@@H](O)[C@H](C)O2)[C@H](C)[C@@H](O[C@@H]2O[C@H](C)C[C@H](N(C)C)[C@H]2O)[C@](C)(O)C[C@@H](C)CN(CCCNC(=S)Nc2ccc([N+](=O)[O-])cc2)[C@H](C)[C@@H](O)[C@]1(C)O`, the IC50 in the experiment with Plasmodium falciparum [1] is 51.3 nM; with Plasmodium falciparum [2], 103 nM; in the experiment with Plasmodium falciparum [3], 37.1 nM.
With `CC[C@H]1OC(=O)[C@H](C)[C@@H](O[C@H]2C[C@@](C)(OC)[C@@H](O)[C@H](C)O2)[C@H](C)[C@@H](O[C@@H]2O[C@H](C)C[C@H](N(C)C)[C@H]2O)[C@](C)(O)C[C@@H](C)CN(CCCNC(=S)NCC2CC3CCC2C3)[C@H](C)[C@@H](O)[C@]1(C)O` (stereo partly specified), the IC50 in the experiment on Plasmodium falciparum [1] is 102 nM; with Plasmodium falciparum [2], 249 nM; in the experiment on Plasmodium falciparum [3], 46.5 nM.
As for `CC[C@H]1OC(=O)[C@H](C)[C@@H](O[C@H]2C[C@@](C)(OC)[C@@H](O)[C@H](C)O2)[C@H](C)[C@@H](O[C@@H]2O[C@H](C)C[C@H](N(C)C)[C@H]2O)[C@](C)(O)C[C@@H](C)CN(CCCNC(=S)N[C@H]2CCCC[C@H]2OCc2ccccc2)[C@H](C)[C@@H](O)[C@]1(C)O`, the 50% inhibitory concentration (IC50) was determined as 126 nM with Plasmodium falciparum [1], 645 nM in the experiment with Plasmodium falciparum [2] and 274 nM in the experiment with Plasmodium falciparum [3].
`CC[C@H]1OC(=O)[C@H](C)[C@@H](O[C@H]2C[C@@](C)(OC)[C@@H](O)[C@H](C)O2)[C@H](C)[C@@H](O[C@@H]2O[C@H](C)C[C@H](N(C)C)[C@H]2O)[C@](C)(O)C[C@@H](C)CN(CCCNC(=S)Nc2ccc(OC)cc2)[C@H](C)[C@@H](O)[C@]1(C)O`: the results for the IC50 with Plasmodium falciparum [1], in the experiment on Plasmodium falciparum [2] and in the experiment on Plasmodium falciparum [3] were 209 nM, 480 nM and 77 nM, respectively.
As for `CC[C@H]1OC(=O)[C@H](C)[C@@H](O[C@H]2C[C@@](C)(OC)[C@@H](O)[C@H](C)O2)[C@H](C)[C@@H](O[C@@H]2O[C@H](C)C[C@H](N(C)C)[C@H]2O)[C@](C)(O)C[C@@H](C)CN(CCCNC(=S)Nc2ccc(OC(F)F)cc2)[C@H](C)[C@@H](O)[C@]1(C)O`, the results for the IC50 in the experiment on Plasmodium falciparum [1], with Plasmodium falciparum [2] and in the experiment on Plasmodium falciparum [3] were 121 nM, 216 nM and 63 nM, respectively.
On to `CC[C@H]1OC(=O)[C@H](C)[C@@H](O[C@H]2C[C@@](C)(OC)[C@@H](O)[C@H](C)O2)[C@H](C)[C@@H](O[C@@H]2O[C@H](C)C[C@H](N(C)C)[C@H]2O)[C@](C)(O)C[C@@H](C)CN(CCCNC(=S)Nc2cc(Cl)cc(Cl)c2)[C@H](C)[C@@H](O)[C@]1(C)O`, for which the IC50 with Plasmodium falciparum [1] came out at 55.4 nM; in the experiment on Plasmodium falciparum [2], 116 nM; in the experiment on Plasmodium falciparum [3], 42.5 nM.
Consider `CC[C@H]1OC(=O)[C@H](C)[C@@H](O[C@H]2C[C@@](C)(OC)[C@@H](O)[C@H](C)O2)[C@H](C)[C@@H](O[C@@H]2O[C@H](C)C[C@H](N(C)C)[C@H]2O)[C@](C)(O)C[C@@H](C)CN(CCCNC(=S)NC(c2ccccc2)(c2ccccc2)c2ccccc2)[C@H](C)[C@@H](O)[C@]1(C)O`, for which the values for the IC50 in the experiment on Plasmodium falciparum [1], in the experiment on Plasmodium falciparum [2] and in the experiment on Plasmodium falciparum [3] were 31.9 nM, 125 nM and 37 nM, respectively.
Consider `CC[C@H]1OC(=O)[C@H](C)[C@@H](O[C@H]2C[C@@](C)(OC)[C@@H](O)[C@H](C)O2)[C@H](C)[C@@H](O[C@@H]2O[C@H](C)C[C@H](N(C)C)[C@H]2O)[C@](C)(O)C[C@@H](C)CN(CCCNC(=O)Nc2c(C)noc2C)[C@H](C)[C@@H](O)[C@]1(C)O`, for which the IC50 in the experiment on Plasmodium falciparum [1], with Plasmodium falciparum [2] and in the experiment on Plasmodium falciparum [3] was 12800 nM in each case.
`CC[C@H]1OC(=O)[C@H](C)[C@@H](O[C@H]2C[C@@](C)(OC)[C@@H](O)[C@H](C)O2)[C@H](C)[C@@H](O[C@@H]2O[C@H](C)C[C@H](N(C)C)[C@H]2O)[C@](C)(O)C[C@@H](C)CN(CCCNC(=S)NCc2ccco2)[C@H](C)[C@@H](O)[C@]1(C)O`: the IC50 in the experiment on Plasmodium falciparum [1] was 240 nM; in the experiment on Plasmodium falciparum [2], 329 nM; with Plasmodium falciparum [3], 449 nM.
`CC[C@H]1OC(=O)[C@H](C)[C@@H](O[C@H]2C[C@@](C)(OC)[C@@H](O)[C@H](C)O2)[C@H](C)[C@@H](O[C@@H]2O[C@H](C)C[C@H](N(C)C)[C@H]2O)[C@](C)(O)C[C@@H](C)CN(CCCNC(=S)Nc2ccsc2C(=O)OC)[C@H](C)[C@@H](O)[C@]1(C)O`: the values for the IC50 in the experiment with Plasmodium falciparum [1], with Plasmodium falciparum [2] and with Plasmodium falciparum [3] were 330 nM, 452 nM and 375 nM, respectively.
In the case of `CC[C@H]1OC(=O)[C@H](C)[C@@H](O[C@H]2C[C@@](C)(OC)[C@@H](O)[C@H](C)O2)[C@H](C)[C@@H](O[C@@H]2O[C@H](C)C[C@H](N(C)C)[C@H]2O)[C@](C)(O)C[C@@H](C)CN(CCCNC(=S)NC2CCCCCCCCCCC2)[C@H](C)[C@@H](O)[C@]1(C)O`, the IC50 is 140 nM with Plasmodium falciparum [1], 264 nM in the experiment with Plasmodium falciparum [2] and 85 nM with Plasmodium falciparum [3].

Source of the values: ChEMBL document CHEMBL1681728, “An automated, polymer-assisted strategy for the preparation of urea and thiourea derivatives of 15-membered azalides as potential antimalarial chemotherapeutics” (Bioorg Med Chem, 2011).
